ChEMBL document CHEMBL4261494, “Design, synthesis and biological evaluation of novel Schiff base-bridged tetrahydroprotoberberine triazoles as a new type of potential antimicrobial agents” (Medchemcomm, 2017)
In brackets after ≈: the same amount, converted by molar mass. Activity calls are given as the source filed them. The calls are words filed in the database; no cut-off is given here.

Tests used:
Staphylococcus aureus [1] = type: functional; conditions: ATCC 25923, 24 h
Staphylococcus aureus [2] = type: functional; conditions: N315, 24 h
Bacillus spizizenii = type: functional; conditions: ATCC 6633, 24 h
Micrococcus luteus = type: functional; conditions: ATCC 4698, 24 h
Escherichia coli [3] = type: functional; conditions: JM109, 24 h
Escherichia coli [4] = type: functional; conditions: DH52, 24 h
Shigella dysenteriae = type: functional; conditions: 24 h
Pseudomonas aeruginosa = type: functional; conditions: ATCC 27853, 24 h
Proteus vulgaris = type: functional; conditions: ATCC 13315, 24 h
Salmonella typhi [5] = assay: microbe, parasite or virus in culture; conditions: Salmonella enterica, 24 h
Candida albicans = type: functional; conditions: for MIC: ATCC 10231, 24 h
Kregervanrija fluxuum = type: functional
Cyberlindnera jadinii = type: functional
Aspergillus flavus = type: functional
Saccharomyces cerevisiae = type: functional; conditions: 24 h
[6] = Aqueous solubility of the compound in pH 7.4 phosphate buffer at 1 mg after 3 hrs by UV absorption analysis; type: physicochemical
DNA = assay: Induction of Escherichia coli supercoiled pUC19 DNA cleavage at 0.0125 mM after 16 hrs in absence of Zn2+ by ethidium bromide staining-based agarose gel electrophoresis method; type: nucleic-acid assay
Escherichia coli [7] = assay: Potency index, ratio of chloromycin MIC to test compound MIC for Escherichia coli JM109; type: functional
Salmonella typhi [8] = assay: Potency index, ratio of chloromycin MIC to test compound MIC for Bacillus typhi; type: functional, Salmonella enterica subsp. enterica serovar Typhi

Row | SMILES | MIC (Staphylococcus aureus [1]) | MIC (Staphylococcus aureus [2]) | MIC (Bacillus spizizenii) | MIC (Micrococcus luteus) | MIC (Escherichia coli [3]) | MIC (Escherichia coli [4]) | MIC (Shigella dysenteriae) | MIC (Pseudomonas aeruginosa) | MIC (Proteus vulgaris) | MIC (Salmonella typhi [5]) | solubility at 3 h [6] | further results
1 | COc1cc(/C=N/n2cnnc2)c2c(c1OCc1ccc([N+](=O)[O-])cc1)CN1CCc3cc4c(cc3C1C2)OCO4 (centres undefined) | 512 µg/mL (≈ 923 µM) | 16 µg/mL (≈ 28.9 µM) | 256 µg/mL (≈ 462 µM) | 2 µg/mL (≈ 3.61 µM) | 128 µg/mL (≈ 231 µM) | 512 µg/mL (≈ 923 µM) | 64 µg/mL (≈ 115 µM) | 64 µg/mL (≈ 115 µM) | 512 µg/mL (≈ 923 µM) | 4 µg/mL (≈ 7.21 µM) | – | –
2 | CCCCCCCCCCOc1c(OC)cc(/C=N/n2cnnc2)c2c1CN1CCc3cc4c(cc3C1C2)OCO4 (centres undefined) | 32 µg/mL (≈ 57.2 µM) | 32 µg/mL (≈ 57.2 µM) | 32 µg/mL (≈ 57.2 µM) | 64 µg/mL (≈ 114 µM) | 128 µg/mL (≈ 229 µM) | 64 µg/mL (≈ 114 µM) | 128 µg/mL (≈ 229 µM) | 128 µg/mL (≈ 229 µM) | 64 µg/mL (≈ 114 µM) | 16 µg/mL (≈ 28.6 µM) | – | –
3 | COc1cc(C=O)c2c(c1O)CN1CCc3cc4c(cc3C1C2)OCO4 (centres undefined) | 128 µg/mL (≈ 362 µM) | 256 µg/mL (≈ 724 µM) | 32 µg/mL (≈ 90.6 µM) | 2 µg/mL (≈ 5.66 µM) | 256 µg/mL (≈ 724 µM) | 256 µg/mL (≈ 724 µM) | 512 µg/mL (≈ 1450 µM) | 16 µg/mL (≈ 45.3 µM) | 64 µg/mL (≈ 181 µM) | 2 µg/mL (≈ 5.66 µM) | 79 µg/mL (≈ 224 µM) | Activity (Candida albicans; ATCC 10231): inactive; Activity (Kregervanrija fluxuum; ATCC 9888): inactive; Activity (Cyberlindnera jadinii; ATCC 9950): inactive; Activity (Aspergillus flavus; ATCC 204304): inactive; MIC (Saccharomyces cerevisiae): 1 µg/mL (≈ 2.83 µM)
4 | COc1ccc2cc3[n+](cc2c1OC)CCc1cc2c(cc1-3)OCO2 [BERBERINE] | 512 µg/mL | 128 µg/mL | > 512 µg/mL | > 512 µg/mL | – | > 512 µg/mL | 256 µg/mL | 256 µg/mL | – | – | 85 µg/mL | Activity (DNA): inactive
5 | CCOc1c(OC)cc(/C=N/n2cnnc2)c2c1CN1CCc3cc4c(cc3C1C2)OCO4 (centres undefined) | 256 µg/mL (≈ 572 µM) | 8 µg/mL (≈ 17.9 µM) | 128 µg/mL (≈ 286 µM) | 16 µg/mL (≈ 35.8 µM) | 256 µg/mL (≈ 572 µM) | 512 µg/mL (≈ 1140 µM) | 512 µg/mL (≈ 1140 µM) | 256 µg/mL (≈ 572 µM) | 32 µg/mL (≈ 71.5 µM) | 256 µg/mL (≈ 572 µM) | – | –
6 | CCCCCCOc1c(OC)cc(/C=N/n2cnnc2)c2c1CN1CCc3cc4c(cc3C1C2)OCO4 (centres undefined) | 8 µg/mL (≈ 15.9 µM) | 32 µg/mL (≈ 63.5 µM) | 8 µg/mL (≈ 15.9 µM) | 16 µg/mL (≈ 31.8 µM) | 4 µg/mL (≈ 7.94 µM) | 32 µg/mL (≈ 63.5 µM) | 8 µg/mL (≈ 15.9 µM) | 32 µg/mL (≈ 63.5 µM) | 16 µg/mL (≈ 31.8 µM) | 2 µg/mL (≈ 3.97 µM) | 442 µg/mL (≈ 878 µM) | Ratio (Escherichia coli [7]): 8; Ratio (Salmonella typhi [8]): 16; MIC (Candida albicans): 2 to 32 µg/mL (≈ 3.97 to 63.5 µM); MIC (Kregervanrija fluxuum; ATCC 9888, 24 h): 2 to 32 µg/mL (≈ 3.97 to 63.5 µM); MIC (Cyberlindnera jadinii; Williopsis jadinii, ATCC 9950, 24 h): 2 to 32 µg/mL (≈ 3.97 to 63.5 µM); MIC (Aspergillus flavus; ATCC 204304, 24 h): 2 to 32 µg/mL (≈ 3.97 to 63.5 µM); MIC (Saccharomyces cerevisiae): 2 to 32 µg/mL (≈ 3.97 to 63.5 µM)
7 | COc1cc(/C=N/n2cnnc2)c2c(c1OCc1cccc(Cl)c1)CN1CCc3cc4c(cc3C1C2)OCO4 (centres undefined) | 256 µg/mL (≈ 471 µM) | 256 µg/mL (≈ 471 µM) | 512 µg/mL (≈ 941 µM) | 512 µg/mL (≈ 941 µM) | 0.5 µg/mL (≈ 0.919 µM) | 512 µg/mL (≈ 941 µM) | 64 µg/mL (≈ 118 µM) | 512 µg/mL (≈ 941 µM) | 512 µg/mL (≈ 941 µM) | 256 µg/mL (≈ 471 µM) | – | –
8 | COc1cc(/C=N/n2cnnc2)c2c(c1OCc1ccc(Cl)cc1Cl)CN1CCc3cc4c(cc3C1C2)OCO4 (centres undefined) | 16 µg/mL (≈ 27.7 µM) | 8 µg/mL (≈ 13.8 µM) | 32 µg/mL (≈ 55.3 µM) | 128 µg/mL (≈ 221 µM) | 16 µg/mL (≈ 27.7 µM) | 256 µg/mL (≈ 443 µM) | 512 µg/mL (≈ 885 µM) | 32 µg/mL (≈ 55.3 µM) | 32 µg/mL (≈ 55.3 µM) | 32 µg/mL (≈ 55.3 µM) | – | –
9 | COc1cc(/C=N/n2cnnc2)c2c(c1OCc1cccc(F)c1)CN1CCc3cc4c(cc3C1C2)OCO4 (centres undefined) | 256 µg/mL (≈ 485 µM) | 512 µg/mL (≈ 971 µM) | 512 µg/mL (≈ 971 µM) | 32 µg/mL (≈ 60.7 µM) | > 512 µg/mL | 256 µg/mL (≈ 485 µM) | 256 µg/mL (≈ 485 µM) | 16 µg/mL (≈ 30.3 µM) | 64 µg/mL (≈ 121 µM) | 512 µg/mL (≈ 971 µM) | – | MIC (Candida albicans): 0.5 µg/mL (≈ 0.948 µM)
